This is an account of results in ChEMBL document CHEMBL3046000, “Design and synthesis of 1-(benzothiazol-5-yl)-1H-1,2,4-triazol-5-ones as protoporphyrinogen oxidase inhibitors” (Bioorg Med Chem, 2013).

For experiment [1], the system named is Digitaria sanguinalis. The experiment can be described thus: Post-emergence herbicidal activity against Digitaria sanguinalis (hairy crabgrass) seedlings assessed as plant growth inhibition at 150 g ai/ha measured 15 days after compound treatment under greenhouse conditions. The format is functional. Conditions: 360 h, read-out: GI.
Experiment [2] has as its system Chenopodium album. In words: Post-emergence herbicidal activity against Chenopodium album seedlings assessed as plant growth inhibition at 150 g ai/ha measured 15 days after compound treatment under greenhouse conditions. The format is functional. Conditions: 360 h, read-out: GI.
The subject of experiment [3] is Chenopodium album. The experiment can be described thus: Post-emergence herbicidal activity against Chenopodium album seedlings assessed as plant growth inhibition at 37.5 g ai/ha measured 15 days after compound treatment under greenhouse conditions. The class given is functional. To be noted: 360 h, read-out: GI.
Experiment [4] has as its system Amaranthus retroflexus. The experiment can be described thus: Post emergence herbicidal activity against Amaranthus retroflexus seedlings assessed as plant growth inhibition at 37.5 g ai/ha measured 15 days after compound treatment under greenhouse conditions. The class given is functional. To be noted: 360 h, read-out: GI.
For experiment [5], the system named is Amaranthus retroflexus. The experiment can be described thus: Post emergence herbicidal activity against Amaranthus retroflexus seedlings assessed as plant growth inhibition at 75 g ai/ha measured 15 days after compound treatment under greenhouse conditions. The class given is functional. To be noted: 360 h, read-out: GI.
Experiment [6] has as its system Chenopodium album. In words: Post-emergence herbicidal activity against Chenopodium album seedlings assessed as plant growth inhibition at 75 g ai/ha measured 15 days after compound treatment under greenhouse conditions. The class given is functional. Conditions: 360 h, read-out: GI.
Experiment [7] deals with Brassica juncea. The experiment can be described thus: Post-emergence herbicidal activity against Brassica juncea seedlings assessed as plant growth inhibition at 37.5 g ai/ha measured 15 days after compound treatment under greenhouse conditions. The class given is functional. Conditions: 360 h, read-out: GI.
The subject of experiment [8] is Brassica juncea. In words: Post-emergence herbicidal activity against Brassica juncea seedlings assessed as plant growth inhibition at 75 g ai/ha measured 15 days after compound treatment under greenhouse conditions. The format is functional. To be noted: 360 h, read-out: GI.
Experiment [9] has as its system Setaria faberi. The experiment can be described thus: Post-emergence herbicidal activity against Setaria faberi (Giant Foxtail) seedlings assessed as plant growth inhibition at 150 g ai/ha measured 15 days after compound treatment under greenhouse conditions. The format is functional. Conditions: 360 h, read-out: GI.
For experiment [10], the system named is Amaranthus retroflexus. In words: Post emergence herbicidal activity against Amaranthus retroflexus seedlings assessed as plant growth inhibition at 150 g ai/ha measured 15 days after compound treatment under greenhouse conditions. The format is functional. To be noted: 360 h, read-out: GI.
Experiment [11] relates to Echinochloa crus-galli. In words: Post emergence herbicidal activity against Echinochloa crus-galli (barnyard grass) seedlings assessed as plant growth inhibition at 37.5 g ai/ha measured 15 days after compound treatment under greenhouse conditions. The class given is functional. Conditions: 360 h, read-out: GI.
Experiment [12] has as its system Setaria faberi. The experiment can be described thus: Post-emergence herbicidal activity against Setaria faberi (Giant Foxtail) seedlings assessed as plant growth inhibition at 37.5 g ai/ha measured 15 days after compound treatment under greenhouse conditions. The format is functional. Conditions: 360 h, read-out: GI.
Experiment [13] deals with T1, Protoporphyrinogen oxidase, chloroplastic (Nicotiana tabacum, UniProt O24163).
T1 sequence (O24163 whole entry): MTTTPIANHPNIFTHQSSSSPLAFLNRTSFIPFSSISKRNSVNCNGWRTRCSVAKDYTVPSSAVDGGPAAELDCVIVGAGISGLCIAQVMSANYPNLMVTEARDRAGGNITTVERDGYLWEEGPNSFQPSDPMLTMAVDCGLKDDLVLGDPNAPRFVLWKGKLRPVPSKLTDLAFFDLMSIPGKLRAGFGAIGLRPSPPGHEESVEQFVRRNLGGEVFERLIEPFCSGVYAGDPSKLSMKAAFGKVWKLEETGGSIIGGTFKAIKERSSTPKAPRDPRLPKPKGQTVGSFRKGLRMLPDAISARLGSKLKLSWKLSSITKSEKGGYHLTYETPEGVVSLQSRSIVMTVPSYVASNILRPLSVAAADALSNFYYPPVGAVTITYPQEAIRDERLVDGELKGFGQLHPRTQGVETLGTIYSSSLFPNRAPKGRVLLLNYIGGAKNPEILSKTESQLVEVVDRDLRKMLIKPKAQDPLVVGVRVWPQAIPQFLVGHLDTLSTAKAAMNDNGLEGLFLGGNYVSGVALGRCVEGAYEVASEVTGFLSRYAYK
In words: Inhibition of Nicotiana tabacum (tobacco) recombinant PPO assessed as protoporphyrin IX formation at room temperature by fluorimetric assay.

For experiment [14], the system named is Echinochloa crus-galli. The experiment can be described thus: Post emergence herbicidal activity against Echinochloa crus-galli (barnyard grass) seedlings assessed as plant growth inhibition at 150 g ai/ha measured 15 days after compound treatment under greenhouse conditions. The format is functional. To be noted: 360 h, read-out: GI.
The test system of experiment [15] is Digitaria sanguinalis. In words: Post-emergence herbicidal activity against Digitaria sanguinalis (hairy crabgrass) seedlings assessed as plant growth inhibition at 37.5 g ai/ha measured 15 days after compound treatment under greenhouse conditions. The class given is functional. Conditions: 360 h, read-out: GI.
Experiment [16] concerns Brassica juncea. The experiment can be described thus: Post-emergence herbicidal activity against Brassica juncea seedlings assessed as plant growth inhibition at 150 g ai/ha measured 15 days after compound treatment under greenhouse conditions. To be noted: 360 h, read-out: GI. The format is functional.
Experiment [17] relates to Digitaria sanguinalis. The experiment can be described thus: Post-emergence herbicidal activity against Digitaria sanguinalis (hairy crabgrass) seedlings assessed as plant growth inhibition at 75 g ai/ha measured 15 days after compound treatment under greenhouse conditions. The format is functional. To be noted: 360 h, read-out: GI.
In experiment [18] the test system is Echinochloa crus-galli. The experiment can be described thus: Post emergence herbicidal activity against Echinochloa crus-galli (barnyard grass) seedlings assessed as plant growth inhibition at 75 g ai/ha measured 15 days after compound treatment under greenhouse conditions. The class given is functional. Conditions: 360 h, read-out: GI.
Experiment [19] relates to Setaria faberi. In words: Post-emergence herbicidal activity against Setaria faberi (Giant Foxtail) seedlings assessed as plant growth inhibition at 75 g ai/ha measured 15 days after compound treatment under greenhouse conditions. The class given is functional. Conditions: 360 h, read-out: GI.

pKi: −log10 of the molar value.

As a reminder, the pKi is −log10 of the Ki, conventionally taken in molar units. For `Cc1nn(-c2cc3nc(SC(C)C(=O)O)sc3cc2Cl)c(=O)n1C(F)F` (stereo not drawn), the inhibition of growth at 150 g/ha in experiment [1], in experiment [2], in [9], in experiment [10], in experiment [14] and in experiment [16] was not below 90% each time. Also, the inhibition of growth at 37.5 g/ha in [3] is 60%; in experiment [4], less than 50%; in [7], less than 50%; in experiment [11], less than 50%; in [12], less than 50%; in experiment [15], less than 50%. In addition, the inhibition of growth at 75 g/ha is 60% in experiment [5]; not below 90% in experiment [6]; 80% in [8]; less than 50% in [17]; less than 50% in experiment [18]; less than 50% in experiment [19]. Moreover, the pKi in [13] is 5.17.

As for `Cc1nn(-c2cc3nc(SCC(=O)O)sc3cc2Cl)c(=O)n1C(F)F`, the inhibition of growth at 150 g/ha in [1], in experiment [2], in [9], in experiment [10], in experiment [14] and in [16] was not below 90% throughout. Moreover, the inhibition of growth at 37.5 g/ha was 80% in [3]; 50% in experiment [4]; 60% in experiment [7]; less than 50% in experiment [11]; less than 50% in [12]; less than 50% in [15]. Besides, the inhibition of growth at 75 g/ha in experiment [5] was not below 90%; in [6], not below 90%; in experiment [8] it was not below 90%; in experiment [17], less than 50%; in experiment [18], less than 50%; in experiment [19] it was less than 50%. For the same compound, the pKi in experiment [13] is 4.99.

Turning to `CCOC(=O)CSc1nc2cc(-n3nc(C)n(C(F)F)c3=O)c(Br)cc2s1`, the inhibition of growth at 150 g/ha is 80% in experiment [1]; not below 90% in experiment [2]; 80% in experiment [9]; not below 90% in [10]; 50% in experiment [14]; not below 90% in experiment [16]. Besides, the inhibition of growth at 37.5 g/ha in experiment [3] was not below 90%; in experiment [4] it was not below 90%; in [7], 80%; in experiment [11] it was 50%; in [12], 50%; in experiment [15] it was 50%. For the same compound, the inhibition of growth at 75 g/ha in experiment [5] is not below 90%; in experiment [6], not below 90%; in experiment [8], 80%; in [17], 60%; in experiment [18], 60%; in experiment [19] it was 60%. Also, the pKi in experiment [13] is 5.10.

Regarding `Cc1nn(-c2cc3nc(SCCC(=O)O)sc3cc2F)c(=O)n1C(F)F`, the inhibition of growth at 150 g/ha in [1] was 50%; in experiment [2], not below 90%; in [9], less than 50%; in experiment [10], not below 90%; in experiment [14], 50%; in experiment [16], not below 90%. Also, the inhibition of growth at 37.5 g/ha in experiment [3] is 80%; in experiment [4] it was 60%; in experiment [7] it was 60%; in [11], less than 50%; in experiment [12], less than 50%; in experiment [15], less than 50%. In addition, the inhibition of growth at 75 g/ha in experiment [5] is not below 90%; in experiment [6], not below 90%; in experiment [8], not below 90%; in experiment [17] it was 50%; in experiment [18] it was less than 50%; in experiment [19], 50%. Also, in experiment [13], the negative logarithm of the Ki (pKi) is 5.78.

Consider `Cc1nn(-c2cc3nc(SC(C)C(=O)O)sc3cc2F)c(=O)n1C(F)F` (stereo not drawn), for which the inhibition of growth at 150 g/ha in [1], in experiment [2], in experiment [9], in experiment [10], in experiment [14] and in [16] was not below 90% in each case. Moreover, the inhibition of growth at 37.5 g/ha in experiment [3] is 50%; in experiment [4] it was not below 90%; in experiment [7], not below 90%; in experiment [11] it was 60%; in experiment [12] it was 60%; in experiment [15], less than 50%. Also, the inhibition of growth at 75 g/ha in [5] was not below 90%; in experiment [6], not below 90%; in experiment [8] it was not below 90%; in experiment [17], less than 50%; in experiment [18], 60%; in experiment [19], 60%. Moreover, the negative-log Ki (pKi) in experiment [13] is 5.92.

`COC(=O)CSc1nc2cc(-n3nc(C)n(C(F)F)c3=O)c(Cl)cc2s1`: the inhibition of growth at 150 g/ha in [1] is not below 90%; in [2], 60%; in [9] it was not below 90%; in experiment [10], not below 90%; in experiment [14], not below 90%; in [16] it was not below 90%. Moreover, the inhibition of growth at 37.5 g/ha in [3] is not below 90%; in [4], 60%; in experiment [7], 60%; in experiment [11] it was 50%; in experiment [12], 50%; in experiment [15], less than 50%. Besides, the inhibition of growth at 75 g/ha in [5] is not below 90%; in experiment [6], not below 90%; in experiment [8] it was 80%; in [17], less than 50%; in experiment [18], 50%; in experiment [19], 50%. For the same compound, the negative-log Ki (pKi) in experiment [13] is 4.82.

As for `CCOC(=O)Sc1nc2cc(-n3nc(C)n(C(F)F)c3=O)c(F)cc2s1`, the inhibition of growth at 150 g/ha in [1] is 50%; in experiment [2], not below 90%; in [9], less than 50%; in [10], not below 90%; in experiment [14], 50%; in experiment [16], not below 90%. Besides, the inhibition of growth at 37.5 g/ha in [3], in experiment [4], in experiment [7], in experiment [11], in experiment [12] and in experiment [15] was less than 50% throughout. For the same compound, the inhibition of growth at 75 g/ha is less than 50% in experiment [5]; 60% in [6]; less than 50% in [8]; less than 50% in experiment [17]; less than 50% in experiment [18]; less than 50% in experiment [19]. In experiment [13], the negative logarithm of the Ki (pKi) is 6.24.
